Like-named read-outs stand apart in the source and are kept apart here.
How the values were obtained:
C8161 cells [1] = experiment: C8161 cell proliferation (doubling time); type: cell-based, human; conditions: 50 μg/mL; for Doubling Time: on plastic, DMSO 22 hr; for increase of doubling time: versus DMSO
Method: Cell Culture and Maintenance: C8161 cells, a human melanoma cell line, were maintained in Dulbecco's modified Eagle's medium (DMEM; […] These cells were routinely screened for Mycoplasma contamination using the GenProbe Rapid Detection System (Fisher Scientific; Chicago, Ill.). Chemically Modified Tetracyclines: Fresh stock solutions of the chemically modified tetracycline compounds (2 mg/mL) were prepared for each experiment by hydrating in 2% dimethyl sulfoxide (DMSO)/water pH 10, then adjusting to pH 7.4 using 1.0 M HCl. […] Sigma Chem. Co.; control) or 50 μg/mL of doxycycline or the other CMTs (three wells on each plate per compound). […] The doubling time for C8161 cells in the presence of each compound was then determined and compared to the DMSO treated cells (control).

C8161 cells [2] = experiment: In vivo metastasis assay, C8161 cells i.v. in SCID mice; conditions: for Number of Lung Metastases/Mouse: Average ± SEM, control 231 ± 49
Method: Immunosuppressed mice (athymic nude/nude SCID females from Harlan Sprague Dawley) were housed in autoclaved cages with microisolator tops, and all manipulations of the animals were done in a laminar flow hood after wiping down both the hood, gloves and cages with ABQ sterilant. The mice were fed sterile Pico Lab Chow (Purina) and autoclaved St. Louis tap water. […] The compounds and control (sterile water plus 2% carboxymethyl cellulose) were kept stored at −80° C. wrapped in aluminum foil to prevent any light induced changes, and each day's supply was thawed just prior to use. Four compounds were tested for their effects on the metastatic potential of C8161 cells injected intravenously via the tail vein: […] The concentration of the compounds in the vials used to give the 100 mg/kg doses were 2.5 times that in the 40 mg/kg dose so that approximately the same volume was used in both cases, approximately 0.5 mL/animal. The experiments started with nine animals per group at day −4. On day zero, 2×10^5 C8161 cells in cold Hank's Balanced Salt Solution (HBSS) were injected intravenously via tail vein inoculation. The experiment was continued for an additional 24 days, at which time the animals were sacrificed and their lungs removed and fixed in a solution of Bouins/formaldehyde (5 parts:1 part). Tumors were quantitated on the entire surface of the lungs by rotating the lungs and counting the tumors on each lobe using a 6× magnifying glass. Statistical analysis was performed using the statistical package of Microsoft's Excel spreadsheet software.

Gelatinase A = molecular target: T1, Gelatinase A (Homo sapiens, UniProt P08253); experiment: Zymography with densitometry of C8161 conditioned medium, gelatinase A; type: cell-based; conditions: 50 μg/mL, 24 hr
T1 construct: endogenous in cells; host or cells: C8161
T1 sequence (P08253 110-660): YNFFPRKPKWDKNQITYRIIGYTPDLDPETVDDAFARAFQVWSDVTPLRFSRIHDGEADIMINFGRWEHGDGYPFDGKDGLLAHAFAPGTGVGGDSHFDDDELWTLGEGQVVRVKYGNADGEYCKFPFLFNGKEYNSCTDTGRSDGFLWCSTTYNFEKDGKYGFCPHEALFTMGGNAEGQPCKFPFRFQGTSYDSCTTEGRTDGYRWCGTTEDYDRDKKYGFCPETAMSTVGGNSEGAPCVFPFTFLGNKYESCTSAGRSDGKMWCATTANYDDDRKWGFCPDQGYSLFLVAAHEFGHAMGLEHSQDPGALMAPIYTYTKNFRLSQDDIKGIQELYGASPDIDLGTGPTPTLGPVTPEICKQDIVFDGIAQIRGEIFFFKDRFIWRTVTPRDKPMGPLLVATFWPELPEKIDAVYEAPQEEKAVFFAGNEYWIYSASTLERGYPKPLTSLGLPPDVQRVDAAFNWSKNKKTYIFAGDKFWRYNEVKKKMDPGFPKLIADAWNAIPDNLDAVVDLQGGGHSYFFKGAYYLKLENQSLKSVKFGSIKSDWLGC
Method: (§1) Six hundred thousand (6×10^5) C8161 cells were seeded per well in a 12-well dish coated with a laminin/collagen IV/gelatin matrix in DMEM plus Mito+ and 0.1% gentamicin sulfate. After approximately 1 hr incubation to allow the cells to attach, 50 μg/mL of either doxycycline or one of the other CMTs was added per well and the dish then placed in a 37° C. humidified 5% CO2 incubator. After 24 hr, the supernatants were removed and centrifuged to remove any cells or debris. One volume of Laemmli sample buffer minus reductant was added to two volumes of the medium, and this sample electrophoresed without prior heating or boiling on a 10% SDS-PAGE containing 0.1% gelatin (samples normalized based on the same number of cells per volume of medium per time of incubation). After electrophoresis, the gels were washed with gentle shaking at room temperature for 30 min in 50 mM Tris-HCl (pH 7.5) plus 2.5% TRITON® X100 plus 50 μg/mL of the corresponding CMT used in the original treatment. The gel was then placed in incubation buffer (50 mM Tris-Cl/10 mM CaCl2/150 mM NaCl/0.05% NaN3) also containing 50 μg/mL of the corresponding CMT, and incubated at 37° C. for 20-24 hr. The gels were stained with Coomassie BBR-250, then destained with 10% methanol/10% acetic acid in water until the wash remained clear. A photographic negative of the gel was digitized using a video camera and Snappy Video Snapshot system (Play Inc., Rancho Cordova, Calif.). An integrated density was determined for each of the cleared zones of proteolysis using the software ImagePC8α (freely available from the National Institutes of Health), and the corresponding changes in gelatinolytic activities reported compared to the control samples normalized to a value of 1.0.

Gelatinase B = molecular target: T2, Gelatinase B (Homo sapiens, UniProt P14780); experiment: Zymography with densitometry of C8161 conditioned medium, gelatinase B; type: cell-based; conditions: 50 μg/mL, 24 hr
T2 construct: endogenous in cells; host or cells: C8161
T2 sequence (P14780 94-707): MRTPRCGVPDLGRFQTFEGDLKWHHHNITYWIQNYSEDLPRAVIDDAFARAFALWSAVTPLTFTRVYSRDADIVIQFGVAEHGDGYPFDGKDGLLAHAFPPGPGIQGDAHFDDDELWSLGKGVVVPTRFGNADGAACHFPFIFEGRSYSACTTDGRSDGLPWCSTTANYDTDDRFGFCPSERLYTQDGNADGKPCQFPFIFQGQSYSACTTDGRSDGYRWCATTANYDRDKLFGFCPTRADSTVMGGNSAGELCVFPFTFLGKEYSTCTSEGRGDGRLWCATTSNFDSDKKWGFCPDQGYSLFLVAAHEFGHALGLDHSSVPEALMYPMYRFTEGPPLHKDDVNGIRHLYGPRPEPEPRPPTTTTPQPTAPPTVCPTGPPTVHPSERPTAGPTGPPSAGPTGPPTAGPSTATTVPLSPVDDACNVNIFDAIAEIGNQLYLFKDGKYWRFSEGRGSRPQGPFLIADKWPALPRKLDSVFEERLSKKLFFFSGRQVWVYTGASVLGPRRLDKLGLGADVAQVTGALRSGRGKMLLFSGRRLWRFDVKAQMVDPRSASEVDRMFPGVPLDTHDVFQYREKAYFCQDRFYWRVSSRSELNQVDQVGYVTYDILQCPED
Method: as §1

COLO 205 Cells [3] = experiment: MTS cytotoxicity assay, COLO 205; conditions: two days
Method: (§2) A panel of chemically modified tetracycline compounds and doxycycline were tested for cytotoxicity against two carcinomas: COLO 205 (a human colon carcinoma-derived cell line) and the E-10 clone of MDA-MB-231 (a human breast carcinoma-derived cell line). Cytoxicity was measured using a conventional assay for viability with a tetrazolium salt (MTS). Cells were grown in media containing the CMTs at concentrations ranging from 5 μM to 100 μM for two days. The cells were then incubated with the MTS for several hours before removal of the supernatant medium for determination of formazan, which is generated only by the viable cells. Results are expressed as percent cytotoxicity, which is simply the percent decline in measured formazan concentration in the sampled medium.

E-10 Cells [4] = experiment: MTS cytotoxicity assay, E-10; conditions: two days
Method: as §2

[5] = test system: C8161 human melanoma cells; experiment: In vitro invasion assay (MICS), laminin/collagen IV/gelatin matrix-coated filter; type: cell-based; conditions: 3, 20 and 50 μg/mL; for Percent Inhibition of invasive potential: 48 hr
Method: The in vitro invasive potentials of the control (DMSO only) and chemically-modified tetracycline treated cells were measured using a modified Boyden chamber as previously described (Membrane Invasion Culture System, MICS). An intervening barrier consisting of a polycarbonate filter containing 10 μm pores (Osmonics, Livermore, Calif.) coated with a defined matrix of human laminin/collagen IV/gelatin (Sigma, St. Louis, Mo.) was used for these studies. […] Doxycycline or individual CMTs were then added to different wells of the chamber at 3, 20 or 50 μg/mL 2 hr post-seeding and daily during the assay. After 48 hr, the cells were removed from the lower wells and the number of invasive cells was determined and compared to the original number of cells seeded into the upper wells. Where appropriate, data were corrected for proliferation during the period of the in vitro assay.

E-10 Cells [6] = test system: E-10 Cells
Method: as §2

COLO 205 Cells [7] = test system: COLO 205 Cells
Method: as §2

TSU-PR1 cells = experiment: Matrigel invasion assay (Boyden chamber, MTT), TSU-PR1; type: cell-based, human; conditions: TSU-PR1, 48 hr
Method: In this method, 4×10^5 tumor cells were plated on the top chamber of the Boyden chemotaxis assay chambers (Costar Transwell plates). The bottom side of the chamber was a 12 μm-pore polycarbonate filter layered with 0.5 mm thick layer of Matrigel. The bottom well contained a chemoattractant, a serum-free culture-conditioned medium from FHS 733 cells, a line of human fetal lung fibroblasts (ATCC No. HTB-157). Cancer cells (4×10^5) were plated in the top wells of the plates. Doxycycline or CMTs were diluted in a serum-free medium to 5 μg/mL, and were added to both top and bottom chambers. […] After 48 hr incubation, MTT was added to both the top and bottom wells (0.5 mg/mL), and incubation was continued for 4 hr. Wells were then emptied, and the cells from the undersides of the filter were pooled with those in the bottom wells with a filter tip. The reduced MTT (formazan) from top and bottom wells was solubilized with DMSO overnight, and absorbance (O.D.) at 515 nm was measured. The ratio of the O.D. from the bottom wells to that of the total (i.e., O.D. of top plus bottom wells) was taken as the invasive potential. […] The MTT assay procedure also normalizes the coincident inhibition due to the cytotoxic effects of the agents under investigation. Results presented are from three independent experiments.

[8] = test system: DU-145 and TSU-PR1 prostate cancer cell lines; experiment: Prostate cancer cell viability/proliferation (trypan blue, MTT); type: cell-based, human
Excerpt: To determine the cytotoxicity of CMTs on prostate tumor cell lines, TSU-PR1 cells (and cells of other tumor cell lines) were exposed to various CMTs or to doxycycline for 24 hr or 48 hr in a complete medium. Cell viability (percent of live cells) was estimated by counting the cells following trypan blue staining. Cellular viability was also estimated by the tetrazolium dye reduction assay (MTT assay) (Lokeshwar et al. 1995b). Due to the aggressive proliferative capacity of cancer cells, it is assumed that viable cells are actively proliferating. Therefore, the measurement of viability was used as an estimate of proliferation. Results are expressed as Mean±SEM from three separate experiments.

Molecule	Doubling Time (C8161 cells [1])	increase of doubling time (C8161 cells [1])	Number of Lung Metastases/Mouse (C8161 cells [2]; 40 mg/kg daily intragastric)	Number of Lung Metastases/Mouse (C8161 cells [2]; 100 mg/kg daily intragastric)	Gelatinase A, integrated density normalized to control 1.00 (Gelatinase A)	Gelatinase B, integrated density normalized to control 1.00 (Gelatinase B)	percent cytotoxicity (COLO 205 Cells [3]; 5 μM)	percent cytotoxicity (COLO 205 Cells [3]; 10 μM)	percent cytotoxicity (COLO 205 Cells [3]; 20 μM)	percent cytotoxicity (COLO 205 Cells [3]; 50 μM)	percent cytotoxicity (COLO 205 Cells [3]; 100 μM)	percent cytotoxicity (E-10 Cells [4]; 5 μM)	percent cytotoxicity (E-10 Cells [4]; 10 μM)	percent cytotoxicity (E-10 Cells [4]; 20 μM)	percent cytotoxicity (E-10 Cells [4]; 50 μM)	percent cytotoxicity (E-10 Cells [4]; 100 μM)	Type of Inhibition [5]	Percent Inhibition of invasive potential [5]	effect on number of lung metastases (significance) (C8161 cells [2]; at either dosage, p>0.05)	other results
CC1(O)c2cccc(O)c2C(=O)C2=C(O)C3(O)C(=O)C(C(N)=O)=C(O)CC3CC21 (stereo not drawn) [CMT-1, 4-de(dimethylamino)tetracycline]	24 h	approximately 9%	129 ± 102	240 ± 28	0.24	0.22	0%	4%	32.5%	63.8%	82.8%	7.6%	0%	0%	2.2%	7.6%	dose-dependent	26-58%		effect on number of lung metastases (significance) (C8161 cells [2]; 40 mg/kg daily, p<0.05): significantly reduced the number of lung metastases; effect on number of lung metastases (significance) (C8161 cells [2]; 100 mg/kg): did not significantly reduce the number of lung metastases
CC1(O)c2c(Cl)ccc(O)c2C(=O)C2=C(O)C3(O)C(=O)C(C(N)=O)=C(O)CC3CC21 (stereo not drawn) [CMT-4, 4-de(dimethylamino)-7-chlorotetracycline]	22 h	did not affect the doubling time			0.75	0.12											non-dose	˜20%		percent cytotoxicity (E-10 Cells [6]; 5 µM): 9%; percent cytotoxicity (E-10 Cells [6]; 10 µM): 16.7%; percent cytotoxicity (E-10 Cells [6]; 20 μM): 0.8%; percent cytotoxicity (E-10 Cells [6]; 50 µM): 0%; percent cytotoxicity (E-10 Cells [6]; 100 µM): 0%; percent cytotoxicity (COLO 205 Cells [7]; 5 µM): 1.8%; percent cytotoxicity (COLO 205 Cells [7]; 10 µM): 6.8%; percent cytotoxicity (COLO 205 Cells [7]; 20 μM): 25.3%; percent cytotoxicity (COLO 205 Cells [7]; 50 µM): 73.3%; percent cytotoxicity (COLO 205 Cells [7]; 100 µM): 81.9%
CC1(O)c2cccc(O)c2C(=O)C2=C(O)C3C(=O)C(C(N)=O)=C(O)CC3CC21 (stereo not drawn) [CMT-7, 4-de(dimethylamino)-12α-deoxytetracycline]	24 h	approximately 9%	136 ± 107	166 ± 101	0.17	1.22	0%	0%	0%	0%	29.4%	0%	0%	0%	0%	8.3%	non	15-55%	did not significantly reduce the number of lung metastases	50% inhibitory dose (IC50), Matrigel invasion (TSU-PR1 cells): > 100 µg/mL
C[C@H]1c2cccc(O)c2C(O)=C2C(=O)[C@]3(O)C(O)=C(C(N)=O)C(=O)C[C@@H]3[C@@H](O)[C@@H]21 [CMT-8, 6α-deoxy-5-hydroxy-4-de(dimethylamino)tetracycline]	26 h	approximately 18%	186 ± 60		0.70	1.05	0%	20.5%	35.5%	44.4%	50%	0%	0%	0%	0%	0%	non-dose	˜12%	did not significantly reduce the number of lung metastases	
tetracycline pyrazole [CMT-5]																				inhibition of cell proliferation [8]: not inhibitory

Reference: patent publication US6429204B1, “Method of inhibiting cancer growth” (University of Miami, priority 1997, dated 2002)
